Source: article PMC11899342, “Novel Triazeneindole Antibiotics: Synthesis and Hit-to-Lead Optimization” (International Journal of Molecular Sciences, 2025)
≈ marks a conversion by molar mass, not a printed value. Read-outs that look alike come from different tables or passages of the source.

Tests used:
[1] = test system: MRSA clinical isolates; assay: MIC by broth microdilution against multidrug-resistant MRSA clinical isolates; type: cell-based, Staphylococcus aureus; details: 8 multidrug-resistant MRSA clinical isolates; tested 0.125-1 mg/L
Protocol: Clinical MRSA isolates with multidrug resistance were obtained from the collection of the Research Institute of Antimicrobial Chemotherapy, Smolensk State Medical Academy.
The MICs were determined using a broth microdilution method according to [42]. Briefly, serial dilutions of the tested compounds in 50 µL of Mueller Hinton broth (BD) were prepared in 96-well microplates. The antibiotics vancomycin and linezolid (Sigma-Aldrich, St. Louis, MO, USA) were used as a positive control. Bacterial suspensions of the tested MRSA strains were prepared in the Mueller Hinton broth (BD) with a concentration 1 × 10^6 CFU/mL, and then 50 µL aliquots were added to the prepared microplates. The final concentrations of the antibiotics in the wells were 1, 0.5, 0.25, and 0.125 mg/L, for the tested compounds, and 2 mg/L for vancomycin and linezolid. Negative control (lack of bacterial cells) and growth control (lack of compound) wells were included in all plates. The microplates were incubated at 37 °C for 18 h. The growth was assessed visually after incubation, and the MIC was assumed as the lowest compound concentration at which a noticeable growth of the microorganisms was inhibited (no visible growth). All experiments were conducted in triplicate.

[2] = test system: human embryonic fibroblasts (HEFs); assay: MTT cytotoxicity on human embryonic fibroblasts; type: cell-based; details: Homo sapiens, Fibroblast, 24 h, ND = non-toxic in tested concentrations (up to 50 mg/L)
Protocol: The primary screening of 22 substances was performed on human embryonic fibroblasts (HEFs). […] The HepG2 cell line was obtained from the American Type Culture Collection (ATCC cat. # HB-8065). The primary HEF cells (normal human embryonic fibroblasts) were derived from human embryonic stem cells. The cells were cultured in DMEM/F12 (1:1) medium containing 10% fetal bovine serum (Invitrogen, Carlsbad, CA, USA) at 37 °C and 5% CO2, according to standard mammalian tissue culture protocols and sterile technique. […] The incubation time with the substance was 24 h for all substances and cell lines. Cell detachment by trypsin, centrifugation, and counting in a hemocytometer were performed 16 h before the addition of the substance. For correct counting of the HepG2 cells, the cell suspension was passed through a syringe needle to get rid of cell aggregates. The cells were placed in the wells of a 96-well plate. The number of cells was selected according to the properties of the cell line and the final optical density in the experiment. Fibroblasts and hepatocytes were used in the amount of 10 thousand cells per well in 100 μL of DMEM/F12 medium supplemented with 10% fetal bovine serum. The substances were added to 100 µL of medium in the wells so that the final concentrations were 50, 25, 12.5, 6.25, 3.125, and 1.62 mg/L. The final well volume was 200 µL. The medium containing fetal bovine serum, without added substances, was used as a negative control. After 24 h, excessive amounts of medium were discarded. A total of 30 µL of MTT solution (5 mg/mL in PBS) was added to each well. After the precipitation of formazan crystals (3 h incubation), they were dissolved using 100 μL of dimethyl sulfoxide. The optical density (OD) was measured at 570 nm using a microplate reader (Eppendorf). For every condition, the cell viabilities were assessed in at least three independent experiments for every cell culture. Cell survival was calculated using the following formula:(OD of treated cells − OD blank)/(OD of control cells − OD blank) × 100%, where OD blank represents the OD values in wells without cells but with the addition of the MTT and DMSO solutions. The results were presented in the form of cytotoxicity curves, and the graphs were also plotted in a Microsoft Excel program; the calculation of the IC50 half-maximal inhibition concentration values was performed in a GraphPad Prism 6.0 (GraphPad Software Inc., San Diego, CA, USA) program, based on the equations of the cytotoxicity curves.

[3] = Solubility in water by HPLC; type: physicochemical; details: water, kinetic from dmso stock
Protocol: The solubility of the compounds in water was assessed using HPLC analysis. Two 1.0 mg portions of the test compounds were dissolved in 10 μL of dimethyl sulfoxide; 1.0 mL of acetonitrile was added to one sample (standard), and 1.0 mL of water was added to the second sample (tested sample). Both vials were mixed in a shaker for 5 min, then centrifuged at 10,000 rpm for 5 min. The supernatants were collected and analyzed using Agilent 1290 Infinity (Agilent Technologies, Santa Clara, CA, USA) with a YMC-Triart C18 50 × 2.0 mm, 1.9 μm column. The concentration of the test compound in water was determined by comparing the peak areas of the standard (concentration 1.0 mg/mL) and the tested sample.

[4] = test system: Caco-2 cells; assay: Caco-2 cell monolayer permeability; type: in vitro ADME, human
Protocol: The MultiScreen Caco-2 (ATCC cat. # HTB-37) test system (Millipore, St. Charles, MO, USA) was used to study the transport through a cell monolayer, according to the manufacturer’s instructions. Briefly, a study of transport from the apical membrane to the basolateral (A-B) area and in the opposite direction (B-A) was carried out on a 21-day culture of Caco-2 at a 1 µM concentration of the tested compound for 2 h. Monolayer integrity was verified by measuring electrical resistance (TEER) using a Millicell-ERS instrument. A TEER value of at least 3 KOhm/well was determined to be acceptable.

[5] = read-out: Solubility in water, mass concentration
[6] = read-out: Solubility in water, molar concentration
[7] = Caco-2, first value: A-B / apical

Compound	MIC Range Against 8 MRSA Strains [1]	solubility at 5 min [3, 5]	solubility at 5 min [3, 6]	Asymmetry index ([4]; Caco-2)	Papp A-B ([4]; Caco-2, 1 µM, 2 h)	Papp B-A ([4]; Caco-2, 1 µM, 2 h)	Mass balance [4, 7]	Mass balance ([4]; Caco-2, second value: B-A / basolateral)	IC50 [2]
CCOC(=O)c1[nH]c2ncccc2c1/N=N/N1CCN(C)CC1 [BX-SI057, Ethyl (E)-3-((4-methylpiperazin-1-yl)diazenyl)-1H-pyrrolo[2,3-b]pyridine-2-carboxylate]	0.5 to 1 µg/mL	16.7 µg/mL	53 µM	–	–	–	–	–	3 µg/mL (≈ 9.48 µM)
CCOC(=O)c1[nH]c2ccccc2c1/N=N/N(C)Cc1ccccc1 [BX-SI003, Ethyl (E)-3-(3-benzyl-3-methyltriaz-1-en-1-yl)-1H-indole-2-carboxylate]	1 µg/mL (≈ 2.97 µM)	29.6 µg/mL	90 µM	–	–	–	–	–	3 µg/mL (≈ 8.92 µM)
CCOC(=O)c1[nH]c2ccccc2c1/N=N/N1CCC(CCOC)CC1 [BX-SI016, Ethyl (E)-3-((4-(2-methoxyethyl)piperidin-1-yl)diazenyl)-1H-indole-2-carboxylate]	>1 µg/mL	–	–	–	–	–	–	–	34 µg/mL (≈ 94.9 µM)
CCOC(=O)c1[nH]c2ccccc2c1/N=N/N1CCCN(C)CC1 [BX-SI005, Ethyl (E)-3-((4-methyl-1,4-diazepan-1-yl)diazenyl)-1H-indole-2-carboxylate]	1 µg/mL (≈ 3.04 µM)	70.2 µg/mL	210 µM	–	–	–	–	–	12 µg/mL (≈ 36.4 µM)
CCOC(=O)c1[nH]c2cc(F)ccc2c1/N=N/N1CCOCC1 [BX-SI040, Ethyl (E)-6-fluoro-3-(morpholinodiazenyl)-1H-indole-2-carboxylate]	1 µg/mL (≈ 3.12 µM)	4.48 µg/mL	14 µM	–	–	–	–	–	12 µg/mL (≈ 37.5 µM)
CCOC(=O)c1[nH]c2ccccc2c1/N=N/N(C)CCN(C)C [BX-SI010, Ethyl (E)-3-(3-(2-(dimethylamino)ethyl)-3-methyltriaz-1-en-1-yl)-1H-indole-2-carboxylate]	1 µg/mL (≈ 3.15 µM)	475 µg/mL	1490 µM	–	–	–	–	–	19 µg/mL (≈ 59.9 µM)
CCOC(=O)c1[nH]c2ccccc2c1/N=N/N1CCC(C)CC1 [BX-SI055, Ethyl (E)-3-((4-methylpiperidin-1-yl)diazenyl)-1H-indole-2-carboxylate]	>1 µg/mL	1.22 µg/mL	4 µM	–	–	–	–	–	16 µg/mL (≈ 50.9 µM)

Now from value to compound, other results behind:

MIC Range Against 8 MRSA Strains [1]	solubility at 5 min [3, 5]	solubility at 5 min [3, 6]	Asymmetry index ([4]; Caco-2)	Papp A-B ([4]; Caco-2, 1 µM, 2 h)	Papp B-A ([4]; Caco-2, 1 µM, 2 h)	Mass balance [4, 7]	Mass balance ([4]; Caco-2, second value: B-A / basolateral)	Compound	IC50 [2]
1 µg/mL (≈ 3.17 µM)	0.399 µg/mL	1 µM	–	–	–	–	–	CCOC(=O)c1[nH]c2ncccc2c1/N=N/N1CCC(C)CC1 [BX-SI058, Ethyl (E)-3-((4-methylpiperidin-1-yl)diazenyl)-1H-pyrrolo[2,3-b]pyridine-2-carboxylate]	12 µg/mL (≈ 38 µM)
–	–	–	3.20	1.14 10^-6 sm/s	3.65 10^-6 sm/s	92.1%	95.8%	rhodamine	–
–	–	–	–	1.48 10^-6 sm/s	–	96%	–	CNC(=C[N+](=O)[O-])NCCSCc1ccc(CN(C)C)o1 [Ranitidine, ranitidine]	–
–	–	–	–	44.6 10^-6 sm/s	–	91.7%	–	CC(C)NCC(O)COc1cccc2ccccc12 (stereo not drawn) [Propranolol, propranolol]	–
